Experimental data from US4990650A, “Aromatic derivative and preparation method thereof” (Teijin Limited, priority 1986, dated 1991).

Assays:
[1] = system: LTB4 production; assay: LTB4 production inhibition effect on human blood (Calcium ionophore-stimulated whole blood); type: cell-based; settings: 10^-5 M Calcium ionophore, Control 20
Protocol: LTB4 production inhibition effect on human blood
A 10^-5 M amount of Calcium ionophore was added to human whole blood, followed by adding the compounds listed in Table 2 to evaluate the inhibition effect of these compounds on LTB4 production. The evaluation was carried out in a manner described in Gresele, P., Arnoult, J., Coene, M. C., Deckmyn, H., and Vermylen, J.: Leukotriene B4 production by stimulated whole blood: Comparative studies with isolated polymorphonuclear cells, Biochem. Biophys. Res. Commun. 137: 334-342, 1986.

[2] = system: intraocular inflammation by Lipopoly saccharide from E. Coli; assay: Effect of eye drops on endotoxin intraocular inflammation by Lipopoly saccharide from E. Coli; type: in vivo, white male house rabbit; settings: 20 hours after LPS
Protocol: Effect on intraocular inflammation by Lipopoly saccharide from E. Coli
The eye drops of the compound (3), i.e., anthranylic acid amide of 8-(2-naphthyl)-5,6-trans-5,6-methano-7E-octenoic acid was prepared by formulating 3.8 mg of the compound (3) in 0.1 ml of ethanol followed by adding 0.9 ml of teel oil to obtain eye drops containing 0.38% of compound (3). The pH was 6.8.
The eye drops of the compound (7), i.e., 3,4-dimethoxy cinnamic acid ester of 8-(2-naphthyl)-5,6-trans-5,6-methano-7E-octene-1-ol were prepared by dissolving 5.3 mg of the compound (7) in 0.1 ml of ethanol upon heating at 70° C. to 80° C. followed by adding 0.9 ml of teel oil to obtain eye drops containing 0.53% of compound (7). The pH was 6.8.
Into one eye of a white male house rabbit having a body weight of 1.5 to 2.0 kg, were dropped the eye drops of the compounds (3) and (7), at 6 hours, 4 hours, and 1 hour before the experiment, and into the other eye, control eye drops containing 0.1 ml ethanol and 0.9 ml teel oil were dropped in the same manner.
To the vitreous body, 5 μg of lipopoly saccharide from E. coli (commercially available from Sigma) in 50 μl of physiolological saline was dropped. After 20 hours, the aqueous humor was taken and the protein content of the aqueous humor was determined by a Bio-rad assay method and the leucocyte in the aqueous humor was determined by a Neubauer Chamber. The LTB4 in the aqueous humor was determined by the HPLC and RIA methods.

[3] = system: LTB4 production; assay: LTB4 production inhibition effect on iris of normal house rabbit; type: cell-based; settings: Oryctolagus cuniculus, n=4; for inhibition at 100 µM: 10^-4 M; for inhibition at 10 µM: 10^-5 M; for inhibition at 1 µM: 10^-6 M; for inhibition at 0.1 µM: 10^-7 M
Protocol: LTB4 production inhibition effect on iris of normal house rabbit
The iris of a normal house rabbit was enucleated, dipped in 1 cc of Tylord solution for control and 1 cc of Tylord solution containing a certain level of medicament, and after 5 minutes, the Tylord solution was passed through a SEP-pack, the portion containing leucotriene was separated by HPLC, and the LTB4 amount was measured by radioimmunoassay. (n=4)

Row | SMILES | LTB4 production Amount ([1]; 10^-5 M) [µg/mL] | LTB4 production Amount ([1]; 10^-6 M) [µg/mL] | LTB4 production Amount ([1]; 10^-7 M) [µg/mL] | Leucocyle in aqueous ([2]; eye drops 0.38% at 6, 4 and 1 hour before, Control 10.1 × 10^5) | Aqueous protein ([2]; eye drops 0.38% at 6, 4 and 1 hour before, Control 30) [mg/mL] | LTB4 in aqueous ([2]; eye drops 0.38% at 6, 4 and 1 hour before, Control 150) [pg/mL] | inhibition at 100 µM [3] [%] | inhibition at 10 µM [3] [%] | inhibition at 1 µM [3] [%] | inhibition at 0.1 µM [3] [%] | Leucocyle in aqueous ([2]; eye drops 0.53% at 6, 4 and 1 hour before, Control 5.5 × 10^5) | Aqueous protein ([2]; eye drops 0.53% at 6, 4 and 1 hour before, Control 33) [mg/mL] | LTB4 in aqueous ([2]; eye drops 0.53% at 6, 4 and 1 hour before, Control 320) [pg/mL]
1 | COC(=O)c1ccccc1NC(=O)CCC[C@H]1C[C@@H]1/C=C/c1ccc2ccccc2c1 (relative stereo) [Compound (3), Methyl anthranylate amide of 8-(2-naphthyl)-5,6-trans-5,6-methano-7E-octenoic acid] | 11 | 12 | 15 | 6.0 × 10^5 cells/ml | 40 | 7.5 | 95 | 95 | 89 | 67 | – | – | –
2 | COc1ccc(/C=C/C(=O)OCCCC[C@H]2C[C@@H]2/C=C/c2ccc3ccccc3c2)cc1OC (relative stereo) [Compound (7), 3,4-Dimethoxycinnamic acid ester of 8-(2-naphthyl)-5,6-trans-5,6-methano-7 E-octene-1-ol] | 12 | 12 | 13 | – | – | – | 92 | 88 | 80 | 20 | 7.5 × 10^5 cells/ml | 41 | 170
3 | O=C(O)CCC[C@H]1C[C@@H]1/C=C/c1ccc2ccccc2c1 (relative stereo) [Reference compound, reference compound] | – | – | – | – | – | – | 35 | 0 | – | – | – | – | –
